“Also recorded” adds a separate entry of the source.
Assays:
ASLN mouse (NZB/WF1) [1] = assay: T cell subsets in ASLN mouse model (NZB/WF1); format: in vivo; settings: Week 5, FIG. 3C
Description: (§1) Improve mouse animal model of accelerated aggravated lupus nephritis8-week-old female mouse (NZB/WF1) model is used for experiment in this embodiment, the mice are randomly divided into two groups (treatment group Tris DBA, negative control group Katimin-1), 7 mice per group, the LPS (0.6 mg/kg) is injected into the abdominal cavity of mouse twice a week, the Tris DBA (30 mg/kg) or Katimin-1® is applied by intraperitoneal injection in one week after injection, the mice are sacrificed in Week 3 and Week 5 respectively.

MAPK (pERK, pJNK, pp38) = assay: Western Blot of MAPK phosphorylation in J774A.1 cells; format: cell-based, mouse
ASLN mouse (NZB/WF1) [2] = assay: Renal pathology (PAM, IHC) and autoantibody in ASLN mouse model; format: in vivo; settings: ASLN mouse kidney
NF-κB = NF-κB activation in J774A.1 cells; format: cell-based, mouse; settings: FIG. 1I
BMDM cells = assay: Mitochondrion ROS in mouse BMDM; format: cell-based; settings: LPS 1 μg/mL 5.5 hours, ATP 30 minutes, FIGS. 6D-6E
Description: The generation of mitochondrion ROS in the mouse BMDM is tested by using mitosox principle. There are two experimental groups (treatment group Tris DBA, negative control group NAC), reacting with 1 μg/mL LPS and cells for 5.5 hours, treated with ATP for 30 minutes, treated with commercial reagent H2DCFDA for one hour, so as to evaluate the cellular infiltration fluorescence intensity.

[3] = tested on: autophagy factors Atg5, LC3BI/II, p62; assay: Autophagy factor expression in J774A.1 cells (Western Blot); format: cell-based, mouse; settings: concentration-dependent
ASLN mouse kidney = assay: Protein expression in renal tissue of ASLN mouse; format: in vivo
Description: as §1
The renal tissue is thoroughly mixed with RIPA lysis, the expression levels of proteins Atg5, LC3B, p62, NLRP3, caspase-1, IL-1β, p47phox, NQO1, pERK, pJNK and pp38 are tested by gel electrophoresis (SDS-page).

NLRP3 inflammasome = NLRP3 inflammasome activation in LPS/ATP-treated J774A.1 cells (ELISA, Western Blot); format: cell-based, mouse
Description: Each group was treated with 0, 0.1, 0.5 and 1 μM Tris DBA culture medium for 30 minutes, reacting with 1 μg/ml lipopolysaccharide (LPS) of NLRP3 inflammasome typical activator for 5.5 hours. Finally, it reacted with 5 mM ATP reagent for 30 minutes, the IL-1β and caspase-1 cytokines were tested by ELISA.
The protein expression was analyzed by Western Blot, the cells and Tris DBA were cultured for 1 hour, and cultured with two groups with LPS or without LPS respectively for 5.5 hours to test the expression level of cytokines (NLRP3, caspase-1, pro-caspase-1, pro-IL-1β, pro-IL-1β) in cells. This step refers to the data from prior literature (Chang Y P, et. al. 2015. Resveratrol inhibits NLRP3 inflammasome activation by preserving mitochondrial integrity and augmenting autophagy.

[4] = tested on: CD4 T cells of OVA-TCR transgenic mouse; assay: Antigen-specific T cell proliferation ([3H]-thymidine) and IFN-γ/IL-4, OVA-TCR CD4 T cells cultured with BMDCs; format: cell-based; settings: FIG. 3L
Description: The CD4 T cells of OVA-TCR transgenic mouse and T cell proliferation of antigenic specificity are used to analyze the manifestation of dendritic cell antigen. The OVA323-339 peptide reacts with LPS and LPS+Tris DBA groups for 16 hours respectively. The CD4 T cells abstracted from OVA-TCR transgenic mouse are cultured with BMDCs as per ratios of 1:0, 1:1, 1:2 and 1:4, the T cell proliferation is determined by radioactive [3H]-thymidine, and the processed cell supernatant is used for testing the IFN-γ and IL-4 expression levels in Th1 and Th2 cells according to the operational manual of commercial reagent kit.

ASLN mouse (NZB/WF1) [5] = assay: Renal pathology (PAM, IHC) and autoantibody in ASLN mouse model; format: in vivo
Description: as §1
When the mice are sacrificed in Week 3 and Week 5, the renal tissue is taken for analysis, the renal cortex tissue is stained by PAM to analyze the content of immunoglobulin G (IgG) and serum complement C3, and the content of F4/80+ macrophages and CD30+ T cells is analyzed by IHC, so as to detect specific antigen molecules in tissue slice and to perform positioning, qualitative and quantitative analyses.

ASLN mouse (NZB/WF1) [6] = assay: ROS (superoxide anion) in urine, serum and renal tissue of ASLN mouse; format: in vivo; settings: Week 3 and Week 5, versus Katimin-1 group
Description: as §1
The ASLN mouse urine, serum and renal tissue obtained in Embodiment 2.4 are used to test antioxidant activity. The ROS content is tested according to operational manual of commercial reagent kit, the fluorescence probe dihydroethidium (Dihydroethidium, DHE) reacts with mouse urine and serum. The experimental results are represented as RLU/15 min/ml; the renal tissue is represented as RLU/15 min/mg dry weight.

ASLN mouse (NZB/WF1) [7] = assay: Urine protein and renal function in ASLN mouse model; format: in vivo; settings: 30 mg/kg intraperitoneal
Description: as §1
The mouse urine is collected weekly, and the serum is collected when the mice are sacrificed in Week 3 and Week 5, the changes in three biochemical indexes, which are creatinine (Cr), BUN and albumin/creatinine ratio (ACR) in urine, are tested according to the operational manual of commercial reagent kit, so as to analyze the changes in renal function.

O=C(/C=C/c1ccccc1)/C=C/c1ccccc1.O=C(/C=C/c1ccccc1)/C=C/c1ccccc1.O=C(/C=C/c1ccccc1)/C=C/c1ccccc1.[Pd].[Pd] [Tris DBA]
regulated T cells FoxP3+CD25+CD4+ (ASLN mouse (NZB/WF1) [1]): will not inhibit; also recorded: significantly increase | pERK expression level (MAPK (pERK, pJNK, pp38); FIG. 1A): can inhibit | pJNK expression level (MAPK (pERK, pJNK, pp38); FIG. 1B): can inhibit | pp38 expression level (MAPK (pERK, pJNK, pp38); FIG. 1C): can inhibit | content of CD3+T cells (ASLN mouse (NZB/WF1) [2]): can obviously inhibit | NF-κB activation (NF-κB): will not affect; also recorded: fails to inhibit | generation of mitochondria ROS (BMDM cells): can inhibit | LC3BI/II expression level ([3]; FIG. 2C, 2E): promotes | p62 expression level ([3]; FIG. 2C, 2F): promotes | Atg5 expression level ([3]; FIG. 2C-2D): promotes | NLRP3 (ASLN mouse kidney; FIG. 5B): inhibitory effect | IL-1β (ASLN mouse kidney; FIG. 5C): inhibitory effect | Atg5 (ASLN mouse kidney; FIG. 5G): inhibitory effect | LC3B I/II (ASLN mouse kidney; FIG. 5H): inhibitory effect | content of p47NADPH (ASLN mouse kidney; FIG. 5J): can inhibit | manifestation of NQO1 (ASLN mouse kidney; FIG. 5K): can promote | activity of GPx (ASLN mouse kidney; FIG. 5L): can enhance | NLRP3 protein expression level (NLRP3 inflammasome; FIG. 1F): can inhibit | pro-IL-1β protein expression level (NLRP3 inflammasome; FIG. 1G): can inhibit | expression level of IL-1β (NLRP3 inflammasome; FIGS. 2J-2K): can inhibit | cytokines induced by LPS (IL-1β, caspase-1, pro-IL-1β) of cell supernatant (NLRP3 inflammasome; Western Blot, FIG. 2B): can inhibit | activation of NLRP3 inflammasome (IL-1β induced by LPS) (NLRP3 inflammasome; after treatment with ATP, FIG. 2A): inhibit | proliferation of T cells [4]: inhibit | content of immunoglobulin G (IgG) (ASLN mouse (NZB/WF1) [5]; ASLN mouse kidney): can obviously inhibit | content of serum complement C3 (ASLN mouse (NZB/WF1) [5]; ASLN mouse kidney): can obviously inhibit | content of F4/80+ macrophages (ASLN mouse (NZB/WF1) [5]; ASLN mouse kidney, IHC): can obviously inhibit | glomerular cell proliferation (ASLN mouse (NZB/WF1) [5]; ASLN mouse renal tissue, PAM stain, FIG. 4E): obviously inhibits | glomerular crescent structure proliferation (ASLN mouse (NZB/WF1) [5]; ASLN mouse renal tissue, PAM stain, FIG. 4F): obviously inhibits | neutrophilic infiltration (ASLN mouse (NZB/WF1) [5]; ASLN mouse renal tissue, PAM stain, FIG. 4G): obviously inhibits | fibrinoid necrosis (ASLN mouse (NZB/WF1) [5]; ASLN mouse renal tissue, PAM stain, FIG. 4H): obviously inhibits | renal interstitial inflammation (ASLN mouse (NZB/WF1) [5]; ASLN mouse renal tissue, PAM stain, FIG. 4I): obviously inhibits | glomerulonephritis (ASLN mouse (NZB/WF1) [5]; ASLN mouse renal tissue, PAM stain, FIG. 4J): obviously inhibits | anti-dsDNA autoantibody (ASLN mouse (NZB/WF1) [5]; ASLN mouse, FIG. 4O): inhibits | expression level of superoxide anion, kidney (ASLN mouse (NZB/WF1) [6]; FIG. 6A): lower | expression level of superoxide anion, serum (ASLN mouse (NZB/WF1) [6]; FIG. 6B): lower | expression level of superoxide anion, urine (ASLN mouse (NZB/WF1) [6]; FIG. 6C): lower | BUN (ASLN mouse (NZB/WF1) [7]; favorable inhibitory effect in Week 3, FIG. 4A): inhibits | creatinine (ASLN mouse (NZB/WF1) [7]; favorable inhibitory effect in Week 3, FIG. 4B): inhibits | urine ACR (ASLN mouse (NZB/WF1) [7]; favorable inhibitory effect in Week 3, FIG. 4C): inhibits

— patent publication US12090132B2, “Tris DBA pharmaceutical composition and its use for treating autoimmune diseases” (National Defense Medical Center, priority 2019, dated 2024)
